Values after ≈ are worked out from the molar mass of the structure shown. Like-named read-outs stand apart in the source and are kept apart here.
Tests used:
[1] = Metabolic stability in liver microsomes (human); type: in vitro ADME; settings: for Residual Amount (%) 15 min / Residual Amount (%) 30 min / Residual Amount (%) 45 min / Residual Amount (%) 60 min: Human, first line of pair; for half-life at 2 µM / microsomal CLint at 2 µM: pH 7.4
Experimental: (§1) For negative samples, add 80µL of PBS (100mM, pH = 7.4) solution. Vortex at 800 rpm for 10 seconds, then pre-incubate in a 37°C water bath for 10 minutes. • 4) After pre-incubation, add 2 µL of control drug or test compound to each well to initiate the reaction. The reaction is carried out in a 37°C water bath at 60 rpm. • 5) At 0.5, 15, 30, 45, and 60 minutes, take 50 µL of the reaction system from each well and add it to 200 µL of cold methanol solution containing the internal standard to terminate the reaction. • 6) Mix thoroughly and centrifuge at 4000 rpm at 4°C for 30 minutes. • 7) Take 100µL of supernatant and mix with 100µL ultrapure water for liquid-mass analysis. *Internal standards: 50nM alprazolam, 50nM labetalol and 100nM ketoprofen
(§2) The internal standard method is adopted, and the ratio of the sample peak area to the internal standard peak area is used to calculate the residual percentage (taking the ratio of the sample peak area to the internal standard peak area at 0.5 minutes as 100%).

[2] = Metabolic stability in liver microsomes (mouse); type: in vitro ADME; settings: for Residual Amount (%) 15 min / Residual Amount (%) 30 min / Residual Amount (%) 45 min / Residual Amount (%) 60 min: Mouse, first line of pair
Experimental: as §1, §2

[3] = Permeability and transporter substrate test in Caco-2 cells (ABBA); type: in vitro ADME; settings: human, pH 7.4; for Papp A→B at 2 h, 5 µM: Caco-2, A to B, read-out: Average Papp PappA-B; for Papp B→A at 2 h, 5 µM: Caco-2, B to A, read-out: Average Papp PappB-A; for efflux ratio at 2 h, 5 µM: Caco-2, Papp(B-A)/Papp(A-B), read-out: Efflux Rate (ERa)
Experimental: (§3) Apparent permeability coefficient (Papp, cm/s) and efflux ratio were calculated using Microsoft Excel.

[4] = system: Caco-2 cells; assay: as above; type: in vitro ADME; settings: Caco-2
Experimental: as §3

[5] = Thermodynamic solubility test; type: physicochemical; settings: phosphate buffer, aqueous buffer, thermodynamic from solid, pH 7.4, 25°C
Experimental: Weigh 7.098 g Na2HPO4 (Solution A) and dissolve in 500 mL ultrapure water via sonication; weigh 3.40 g KH2PO4 (Solution B) and dissolve in 250 mL ultrapure water via sonication. Slowly add Solution B dropwise to Solution A and adjust the pH to 7.40 ± 0.05.
Shake at 1100 rpm, 25°C for 5 minutes; • i) Add 10 µL of the 1 mg/mL DMSO sample and 10 µL of buffer to 980 µL of methanol, then dilute 10-fold with methanol:water (1:1) as the standard sample for LC-MS/MS analysis.
Solubility was calculated using Excel. Solubility(μM) = (Areafiltered × DFfiltered)/(Areastd × DFstd) × [std] × DFstd [formula]

[6] = system: Pancreatic cancer cell line BxPC-3; assay: BxPC-3 subcutaneous tumor xenograft mouse model (pancreatic cancer); type: in vivo; settings: for TGI: test endpoint, TGITV
[7] = system: PSN1 cells; type: in vivo; settings: for TGI: endpoint (day 31), TGITV; for mice died: 8 mice per group
Experimental: • M-NSG mice: SPF grade, female, 6-8 weeks old, weighing 16-20 g, purchased from Shanghai Model Organisms Technology Co., Ltd. • PSN1 cells: purchased from ATCC;
PSN1 cells were cultured in an incubator at 37°C and 5% CO2 in RPMI-1640 medium containing 10% inactivated fetal bovine serum. Cells were subcultured by passaging into new culture dishes every 2 to 3 days when they reach confluent.
• 8.2.3.1 PSN1 cells in the logarithmic growth phase were taken and resuspended in PBS. The cell suspension was inoculated subcutaneously into the right flank of M-NSG mice using a 1mL syringe (inoculated cell count: 5E6/mouse + 30%M). The survival status of the mice and the subcutaneous tumor formation were observed every other day. • 8.2.3.2 On the day of grouping, mice were randomly divided into 8 groups with 8 mice in each group based on the average tumor volume (~190 mm^3) and mouse body weight; • 8.2.3.3 The mice were dosed according to the grouping scheme, all by intragastric administration. […]. The hair condition and status of the mice were observed, and the body weight and tumor size were recorded twice a week to calculate TGI%. • 8.2.3.4 Grouping of Test Animals
When the average tumor volume reached ~ 190 mm^3, mice with moderate individual tumor volume were selected for inclusion in the group. The animals were randomly assigned to experimental groups according to tumor volume and mouse weight, with 8 mice in each group. Administration started one day after grouping.
TV = 1/2 × a × b2 [formula] wherein: a represents the long diameter of the tumor; b represents the short diameter of the tumor.
RTV = Vt /Vinitial × 100(%) [formula]
T/C(%) = (TRTV/CRTV) × 100% [formula]
TGI = [1−(TVt/TVinitial)/([…])] × 100% [formula]
wherein, TVt represents the tumor volume of the treatment group at each measurement; TVinitial represents the tumor volume of the treatment group at the time of grouping and administration; CVt represents the tumor volume of the control group at each measurement; CVinitial represents the tumor volume of the control group at the time of grouping and administration.
Body Weight Change Rate = (BWfinal-BWinitial) / BWinitial × 100% [formula] wherein, BWinitial represents the animal body weight at the time of grouping and administration; BWfinal represents the animal body weight at each measurement.
The original data of measurement and observation must be recorded. The analysis and processing are based on the original data, and the results are presented as mean and standard error of the mean (Mean ± SEM). T-test is used to analyze the difference in tumor volume between the control group and the treatment group. P < 0.05 indicates statistical significance.

[8] = in vivo; settings: iv
Experimental: The objective of this study is to investigate the pharmacokinetic properties of the disclosed compounds after tail vein intravenous injection (IV) and oral administration (PO) in female CD1 mice. Plasma was sampleed at 0, 0.083, 0.25, 0.5, 1, 2, 4, 7 and 24 hours post-dosing, and the drug concentrations in plasma at different time points were detected by LC-MS/MS, and the relevant pharmacokinetic parameters were calculated using WinNonlin software.
Experimental female CD1 mice were purchased from SPF Laboratory Animal Technology Co., Ltd., aged 6-8 weeks with body weights of 20-30 g. The female CD1 mice were housed in a controlled environment (set temperature at 20-25°C and relative humidity at 40-70%). A 12-hour light/12-hour dark cycle was maintained unless interrupted by study-related events.
Compound solutions are prepared in an ultra-clean workbench and prepared immediately before use, and mixed thoroughly prior to use to ensure formulation homogeneity.
Vehicle composition: 10% DMSO+90% (20%SBE-β-CD) Table 4. Doses Used in IV Administration
Vehicle composition: 10% DMSO + 90% (20%SBE-β-CD) Table 5. Doses Used in PO Administration
Vehicle composition: 0.5% MC + 1% Tween-20 Table 6. Doses Used in PO Administration
Prior to the experiment, the animals were randomly grouped. The mice were fasted for 12 hours before drug administration, and free feeding was resumed 4 hours after administration.
All blood samples were transferred into plastic microcentrifuge tubes containing anticoagulant (EDTA-K2), and then centrifuged at 4000 g for 5 minutes at 4°C. The supernatant was transferred into a microcentrifuge tube without anticoagulant, and the plasma was stored in a -75±15°C refrigerator until detection.
The blood samples were purified by HPLC and analyzed by mass spectrometry to obtain the plasma concentration-time curve of the disclosed compound.
The pharmacokinetic parameters were estimated by non-compartmental model method (calculated by Phoenix WinNonlin software).

[9] = 90 mg/kg p.o. q.d. 10 consecutive days
[10] = male, CD-1, pH 7.4, Mouse liver microsomes
[11] = 30 mg/kg p.o. q.d. 10 consecutive days
[12] = 60 mg/kg p.o. q.d. 10 consecutive days
[13] = 60 mg/kg p.o. QD*6 times, during administration
[14] = female, CD1, mouse, plasma, 10 mg/kg
[15] = female, CD1, mouse, plasma, 2 mg/kg

| Compound | Residual Amount (%) 15 min [1] | Residual Amount (%) 30 min [1] | Residual Amount (%) 45 min [1] | Residual Amount (%) 60 min [1] | Residual Amount (%) 15 min [2] | Residual Amount (%) 30 min [2] | Residual Amount (%) 45 min [2] | Residual Amount (%) 60 min [2] | Papp A→B at 2 h, 5 µM [3] | Papp B→A at 2 h, 5 µM [3] | efflux ratio at 2 h, 5 µM [3] | Classification Efflux Transporter Substrate [4] | solubility at 24 h [5] | half-life at 2 µM ([1]; Human liver microsomes) | microsomal CLint at 2 µM ([1]; Human liver microsomes) | half-life at 2 µM [2, 10] | microsomal CLint [2, 10] | Mouse Mortality Rate [6, 12] | TGI [6, 12] | Mouse Mortality Rate ([7]; 60 mg/kg p.o. QD*6 times) | further results |
| --- | --- | --- | --- | --- | --- | --- | --- | --- | --- | --- | --- | --- | --- | --- | --- | --- | --- | --- | --- | --- | --- |
| [2H]C1([2H])CN(c2ccc(OC(F)(F)F)c(Nc3ncc4c(n3)-c3c(c(C(N)=O)nn3CCO)CC4)c2)C([2H])([2H])[C@H]2CCCN21 [CPD04] | 52.72% | 28.62% | 21.10% | 13.41% | 61.30% | 39.18% | 34.10% | 26.56% | 4.2 ×10⁻⁶ cm/s | 25.1 ×10⁻⁶ cm/s | 5.98 | Probable (ERa ≧ 2) | 3 µg/mL (≈ 5.33 µM) |  |  |  |  |  |  |  | half-life ([1]; Human liver microsomes): 0.349 h; microsomal CLint ([1]; Human liver microsomes): 66.2 µL/min/mg; half-life ([2]; Mouse liver microsomes): 0.532 h; microsomal CLint ([2]; Mouse liver microsomes): 43.4 µL/min/mg; Mouse Mortality Rate [6, 9]: 0%; TGI [6, 9]: 53%; Mouse Mortality Rate ([7]; 90 mg/kg p.o. QD*6 times): 0%; mouse death ([7]; 90 mg/kg p.o. QD*6 times): no mouse death was found; TGI ([7]; 90 mg/kg p.o. QD*6 times): 40%; body weight loss ([7]; 90 mg/kg p.o. QD*6 times, throughout the period): no body weight loss was observed; AUC(0-t) ([8]; mouse, in vivo, 10 mg/kg): 3340 ng·h/mL; Vd ([8]; mouse, in vivo, 10 mg/kg): 2.31 L/kg; clearance ([8]; mouse, in vivo, 10 mg/kg): 50.1 mL/min/kg; half-life ([8]; mouse, in vivo, 10 mg/kg): 1.06 h |
| [2H]C1([2H])N(C)C([2H])([2H])C([2H])([2H])N(c2ccc(OC(F)(F)F)c(Nc3ncc4c(n3)-c3c(c(C(N)=O)nn3CCO)CC4)c2)C1([2H])[2H] [CPD06] | 86.05% | 73.64% | 68.37% | 63.15% | 81.80% | 68.21% | 64.96% | 57.01% | 5.18 ×10⁻⁶ cm/s | 34.7 ×10⁻⁶ cm/s | 6.71 | Probable (ERa ≧ 2) | 22.6 µg/mL (≈ 41.8 µM) | 1.5 h | 15.4 µL/min/mg | 1.27 h | 18.2 µL/min/mg | 0% | 71% | 0% | Mouse Mortality Rate [6, 11]: 0%; TGI [6, 11]: 33%; toxic symptoms during the treatment ([6]; BxPC-3 tumor-bearing mice): No obvious toxic symptoms were observed; mice died ([7]; 60 mg/kg p.o. QD*6 times): No mice died; body weight loss [7, 13]: ≤ 15%; TGI ([7]; 60 mg/kg p.o. QD*6 times): 53%; AUC(0-t) [8, 14]: 3050 ng·h/mL; Vd [8, 14]: 3.02 L/kg; clearance [8, 14]: 55.1 mL/min/kg; half-life [8, 14]: 1.05 h |
| CN1CCN(c2ccc(OC(F)(F)F)c(Nc3ncc4c(n3)-c3c(c(C(N)=O)nn3CCO)CC4)c2)CC1 [NMS-P937, onvansertib, reference compound] | 80.23% | 73.16% | 69.74% | 58.94% | 82.56% | 69.31% | 61.60% | 53.17% | 6.09 ×10⁻⁶ cm/s | 34.2 ×10⁻⁶ cm/s | 5.61 | Probable (ERa ≧ 2) | 24.8 µg/mL (≈ 46.6 µM) | 1.44 h | 16.1 µL/min/mg | 1.11 h | 20.9 µL/min/mg | 25% | 61% | 50% | mice died ([6]; 60 mg/kg p.o. q.d., 8 mice per group): 2; mice died ([7]; 60 mg/kg p.o. QD*6 times): half; body weight loss [7, 13]: decreased severely; AUC(0-t) [8, 15]: 353 ng·h/mL; Vd [8, 15]: 5.71 L/kg; clearance [8, 15]: 95.7 mL/min/kg; half-life [8, 15]: 1.52 h; AUC(0-t) [8, 14]: 4540 ng·h/mL; Vd [8, 14]: 3.22 L/kg; clearance [8, 14]: 36.9 mL/min/kg; half-life [8, 14]: 3.52 h |
